Measured values published in patent US20150133493A1, “COUMARIN-BASED COMPOUNDS FOR THE TREATMENT OF ALZHEIMER'S DISEASE AND CANCER” (Sloan-Kettering Institute for Cancer Research, priority 2008, published 2015).

Key:
[1] = target: T1, γ-secretase (Homo sapiens, UniProt P49768); test: Inhibition kinetic analysis in the in vitro γ-secretase activity assay; type: biochemical; conditions: APP-transmembrane domain substrate
T1 construct: endogenous in cells
Description: FIG. 4. Kinetic analysis of allosteric GSIs and evaluation of their effect on the γ-secretase active site architecture. (a) Kinetic analysis of CS1 was performed using our modified version of a previously reported in vitro γ-secretase activity assay. The inhibition kinetics were analyzed by using a non-linear curve fit with the Michaelis-Menten equation. Upper right inset: we replotted slopes against the inhibitor concentrations after performing double reciprocal conversion. (b) Schematic representation of the allosteric binding of the di-coumarin compounds to γ-secretase. This binding ultimately causes an alteration at the active site of γ-secretase. Black rectangle represents the coumarin-dimer compound. (c) The binding of L458 to the active site of γ-secretase and its interaction at various subpockets within the enzyme. […]
Cell membranes and solubilized γ-secretase were prepared as described previously (36). […] Cleaved product was detected using ruthenylated antibodies that recognize specific APP cleavage sites (Aβ31-38*, G2-10*, or G2-11* antibody for Aβ38, Aβ40, or Aβ42 respectively). The Km and Vmax in the presence and absence of γ-secretase inhibitors were analyzed by non-linear curve fit using the software SigmaPlot 8.0 with the Michaelis-Menten equation (v=Vm [S]/(Km+[S]; v: initial rate; Vm: maximum velocity; Km: the Michaelis-Menten constant, S: substrate).

[2] = target: T2, γ-secretase active site (Homo sapiens, UniProt P49768); test: Photolabeling of the γ-secretase active site (PS1-NTF) in HeLa membrane with probes L646, GY4, JC8, L505; type: binding; conditions: L458 and Compound E at 2 μM, CS-1 up to 100 μM
T2 construct: endogenous in cells; host or cells: HeLa membrane
Description: FIG. 4. Kinetic analysis of allosteric GSIs and evaluation of their effect on the γ-secretase active site architecture. (a) Kinetic analysis of CS1 was performed using our modified version of a previously reported in vitro γ-secretase activity assay. The inhibition kinetics were analyzed by using a non-linear curve fit with the Michaelis-Menten equation. Upper right inset: we replotted slopes against the inhibitor concentrations after performing double reciprocal conversion. (b) Schematic representation of the allosteric binding of the di-coumarin compounds to γ-secretase. This binding ultimately causes an alteration at the active site of γ-secretase. Black rectangle represents the coumarin-dimer compound. (c) The binding of L458 to the active site of γ-secretase and its interaction at various subpockets within the enzyme. (d) Chemical structure of the four photoaffinity probes utilized in the characterization of CS-1 effect on active site architecture. Hydroxyethylamine and benzophenone moieties are marked by blue and red, respectively. (e) Evaluation of CS-1 effect on the photolabeling of four probes. […] (f) Evaluation of CS-2 effect on the active site photolabeling by L505 and GY4. (g) Effect of Compound E on active site photolabling. […] Blotting was performed for PS1-NTF. The photolabeling blots are representative and were performed in triplicate.
We hypothesized that the allosteric binding of the di-coumarin compounds alters the conformation of the active site of γ-secretase and thereby preferentially affects the Aβ42 site cleavage (FIG. 4b). This raised the technical issue of how to probe the contours of the enzymatic active site. Although the structure of γ-secretase has been determined by cryoelectron microscopy (23), the resolution attained is not sufficient to investigate subtle changes within the active site. Consequently, we developed a series of active-site directed inhibitors that incorporate a photoreactive benzophenone entity into varied positions. Using these photoreactive probes, we assessed the effect of the di-coumarin inhibitor binding on the active site of γ-secretase. Since the efficiency of photoinsertion depends on the orientation of the probe and the proximity of residues within the active site, conformational change of the active site can alter the orientation of the probe and contact residues and lead to altered cross-linking efficiencies. Therefore, multiple photoactivatable, active-site directed GSIs will provide a practical approach to evaluate the changes within the active site following allosteric di-coumarin binding.
L458 contains a hydroxyethylamine transition-state isostere that mimics the tetrahedral intermediate of aspartyl proteases and this moiety hydrogen bonds with the catalytic aspartate residues of γ-secretase (20). According to the nomenclature of Schechter and Berger (24), L458 contains the P2, P1, P1′, P2′ and P3′ residues that putatively bind to the S2, S1, S1′, S2′ and S3′ subsites, respectively, within the active site of γ-secretase (FIG. 4c). We have developed a series of biotinylated, photoactivatable inhibitors based on the core structure of L458 that allow us to probe the sub-pockets of the γ-secretase active site (3, 25-26). These inhibitors all have an individual benzophenone group incorporated into L458 at either the P2, P1, P1′, or P3′ position and are referred to as L646, GY4, JC8 and L505 (FIG. 4d). Each of these inhibitors interacts and labels the S2, S1, S1′, and S3′ subsites, respectively, within the γ-secretase complex (FIG. 4c-d).
HeLa membrane was incubated with CHAPSO detergent and photoaffinity probe in the presence or absence of excess L458 or CS-1. Labeled presenilin was isolated using streptavidin beads, separated by SDS-PAGE and subsequently western blotted using anti-PS1-NTF antibodies. Again, presenilin is believed to contain the active site of γ-secretase, therefore we examined PS1 photolabeling. […]

[3] = target: T1, γ-secretase; conditions: reference (22); cited from earlier work

mode of inhibition against APP-TM substrate [1]: competitive inhibitor
effect on JC-8 photolabeling of PS1-NTF (S1′ subsite) [2]: completely blocked
effect on L646 photolabeling of PS1-NTF (S2 subsite) [2]: completely blocked
effect on GY-4 photolabeling of PS1-NTF (S1 subsite) ([2]; CS-2 at 100 μM): completely blocked
effect on L505 photolabeling of PS1-NTF (S3′ subsite) ([2]; CS-2 at 100 μM): completely blocked
Structure (SMILES): CC(C)C[C@H](NC(=O)[C@H](Cc1ccccc1)C[C@@H](O)[C@H](Cc1ccccc1)NC(=O)OC(C)(C)C)C(=O)N[C@@H](Cc1ccccc1)C(N)=O [L-685,458]
mode of inhibition when the C100 substrate is used [3]: non-competitive inhibitor
